# Measurements published in US8124653B2, “Methods and compositions for the treatment of attention deficit hyperactivity disorder and hyperphenylalanemia” (The Board of Regents of The University of Texas System, priority 2004, dated 2012).
# Values joined by “and” are separate entries in the source; they are usually repeats but may differ in a detail not shown here. Equal values may be shown once.
# Tests used:
# PKU patients = test: Single oral BH4 dose in PKU patients, blood Phe and tyrosine response (Example 1); assay type: in vivo, human; conditions: single oral 10 mg/kg, responder = Phe reduction 25% or greater with tyrosine increase 25% or greater within 24 hours
# Procedure: PKU patients were administered a single oral dose of 10 mg/kg BH4, and blood levels of both Phe and tyrosine were monitored at 0, 4, 8, 24 hours post-dose. In this regard, it should be noted that this is half the dose administered by previous investigators.
# patients with PKU = test: Oral BH4 loading in patients with PKU, blood Phe and tyrosine by tandem MS/MS (Example 2); assay type: in vivo, human
# Procedure: This study included 15 males and 10 females with PKU. There were 13 subjects with “classical” PKU (based on blood Phe levels greater than 20 mg/dL) and 12 with “atypical” PKU (blood Phe 6.0-20 mg/dL). The mean age of the subjects was 16.6 years with a range from 6 months to 43 years. All subjects were on a restricted Phe diet, except four subjects with atypical PKU, who had discontinued diet treatment. […] Tetrahydrobiopterin (BH4) was obtained from Schircks Laboratories, Jena, Switzerland. The subjects were given BH4 10 mg/kg or 20 mg/kg by mouth after baseline blood Phe and tyrosine were drawn. Blood Phe and tyrosine were taken at 4, 8, and 24 hours and determined using tandem MS/MS (Neogen).
# normal mice = test: Levels of metabolites in mouse brain following BH4 and 6-methyl BH4 treatment, normal mice; assay type: in vivo; conditions: Non PKU mice, single dose IM 100 mg/kg, after 1 hr; one line per animal
# Procedure: (§1) To comparatively investigate the CNS effects of BH4 and methyl BH4, we used mice both with and without PKU. A single dose of either compound was given IM, 100 mg/kg to PKU afflicted and normal mice, with control groups receiving buffer only. After 1 hr, a time sufficient to observe changes in brain chemistry, the mice were sacrificed, and brains were sent out for analysis of 3-O-methyldopa (“3OMD”), 5-hydroxytryptamine ([…]) (serotonin), dihydroxybenzoic acid (“DHBA”), dopamine (“DA”), dihydroxyphenylacetic acid (“DOPAC”), hydroxyindoleacetic acid (“HIAA”), homovanilic acid (“HVA”), and methoxyhydroxyphenylglycol (“MPHG”) levels.
# PKU afflicted mice = test: Levels of metabolites in mouse brain following BH4 and 6-methyl BH4 treatment, PKU mice; assay type: in vivo; conditions: for 3OMD level in brain / 5HT level in brain / DA level in brain / DOPAC level in brain / HIAA level in brain / HVA level in brain / MPHG level in brain: PKU mice, single dose IM 100 mg/kg, after 1 hr, one line per animal
# Procedure: as §1
# [1] = test system: release of neurotransmitter amines; conditions: U.S. Pat. No. 5,606,020 to Watanabe et al.; cited from earlier work
smiles,measurement,setting,value
"C[C@H](O)[C@H](O)[C@H]1CNc2nc(N)[nH]c(=O)c2N1 [BH4, Tetrahydrobiopterin]",Number of Responders,"PKU patients; Atypical PKU, blood Phe 6-20 mg/dl, 9 subjects",9
same,Number of Responders,"PKU patients; Classic PKU, blood Phe 20-50 mg/dl, 6 subjects",0
same,Number of classical PKU subjects who responded to BH4,patients with PKU; 13 subjects with classical PKU (blood Phe greater than 20 mg/dL),6
same,Drop in blood Phe level,patients with PKU; non-responding patients with R261Q allele challenged again with 20 mg/kg BH4,10%
same,Mean decline in blood Phe,"patients with PKU; responders, after BH4 loading",53.7%
same,Mean blood Phe level after BH4 loading,"patients with PKU; responders, prior to BH4 12.2 mg/dL",6.6 mg/dL
same,Mean blood Phe level after BH4 loading,"patients with PKU; responders, prior to BH4 732 mmol/L, unit of the source corrected",396 µM
same,3OMD level in brain,normal mice,0.58 nmol/g wet weight and 0.27 nmol/g wet weight and 0.60 nmol/g wet weight and 0.41 nmol/g wet weight and 115.6 nmol/l and 53.3 nmol/l and 119.7 nmol/l and 81.1 nmol/l
same,5HT level in brain,normal mice,1.27 nmol/g wet weight and 1.21 nmol/g wet weight and 1.16 nmol/g wet weight and 1.53 nmol/g wet weight and 253.5 nmol/l and 242.3 nmol/l and 231.2 nmol/l and 305.2 nmol/l
same,DA level in brain,normal mice,9.06 nmol/g wet weight and 9.56 nmol/g wet weight and 9.63 nmol/g wet weight and 9.93 nmol/g wet weight and 1811.4 nmol/l and 1912.5 nmol/l and 1926.7 nmol/l and 1985.9 nmol/l
same,DOPAC level in brain,normal mice,0.68 nmol/g wet weight and 0.62 nmol/g wet weight and 0.72 nmol/g wet weight and 0.79 nmol/g wet weight and 136.6 nmol/l and 124.4 nmol/l and 143.4 nmol/l and 158.6 nmol/l
same,HIAA level in brain,normal mice,3.49 nmol/g wet weight and 3.23 nmol/g wet weight and 3.19 nmol/g wet weight and 3.58 nmol/g wet weight and 697.5 nmol/l and 646.1 nmol/l and 638.7 nmol/l and 716.9 nmol/l
same,HVA level in brain,normal mice,1.08 nmol/g wet weight and 1.09 nmol/g wet weight and 1.22 nmol/g wet weight and 1.18 nmol/g wet weight and 216.9 nmol/l and 217.7 nmol/l and 243.0 nmol/l and 236.6 nmol/l
same,MPHG level in brain,normal mice,0.36 nmol/g wet weight and 0.30 nmol/g wet weight and 0.40 nmol/g wet weight and 0.33 nmol/g wet weight and 72.5 nmol/l and 60.6 nmol/l and 80.2 nmol/l and 66.7 nmol/l
same,3OMD level in brain,PKU afflicted mice,0.48 nmol/g wet weight and 0.16 nmol/g wet weight and 0.09 nmol/g wet weight and 0.55 nmol/g wet weight and 95.1 nmol/l and 32.9 nmol/l and 18.2 nmol/l and 110.4 nmol/l
same,5HT level in brain,PKU afflicted mice,0.16 nmol/g wet weight and 0.23 nmol/g wet weight and 0.15 nmol/g wet weight and 0.24 nmol/g wet weight and 31.5 nmol/l and 45.7 nmol/l and 30.4 nmol/l and 48.3 nmol/l
same,DA level in brain,PKU afflicted mice,6.28 nmol/g wet weight and 9.48 nmol/g wet weight and 6.91 nmol/g wet weight and 8.08 nmol/g wet weight and 1256.0 nmol/l and 1896.3 nmol/l and 1382.2 nmol/l and 1616.2 nmol/l
same,DOPAC level in brain,PKU afflicted mice,0.40 nmol/g wet weight and 0.53 nmol/g wet weight and 0.51 nmol/g wet weight and 0.37 nmol/g wet weight and 80.9 nmol/l and 105.7 nmol/l and 101.0 nmol/l and 73.1 nmol/l
same,HIAA level in brain,PKU afflicted mice,0.91 nmol/g wet weight and 1.68 nmol/g wet weight and 0.94 nmol/g wet weight and 1.45 nmol/g wet weight and 181.1 nmol/l and 336.9 nmol/l and 188.0 nmol/l and 290.6 nmol/l
same,HVA level in brain,PKU afflicted mice,0.80 nmol/g wet weight and 1.04 nmol/g wet weight and 0.77 nmol/g wet weight and 0.94 nmol/g wet weight and 160.6 nmol/l and 207.0 nmol/l and 153.6 nmol/l and 188.7 nmol/l
same,MPHG level in brain,PKU afflicted mice,0.18 nmol/g wet weight and 0.21 nmol/g wet weight and 0.26 nmol/g wet weight and 0.16 nmol/g wet weight and 35.2 nmol/l and 42.9 nmol/l and 51.6 nmol/l and 31.6 nmol/l
"CC1CNc2nc(N)[nH]c(=O)c2N1 (centres unmarked) [6-Me BH4, 6-methyl-tetrahydropterin]",3OMD level in brain,normal mice,0.57 nmol/g wet weight and 0.29 nmol/g wet weight and 0.36 nmol/g wet weight and 0.44 nmol/g wet weight and 114.5 nmol/l and 87.7 nmol/l and 58.2 nmol/l and 71.7 nmol/l
same,5HT level in brain,normal mice,1.07 nmol/g wet weight and 1.31 nmol/g wet weight and 1.21 nmol/g wet weight and 1.11 nmol/g wet weight and 214.3 nmol/l and 222.6 nmol/l and 261.1 nmol/l and 242.3 nmol/l
same,DA level in brain,normal mice,10.86 nmol/g wet weight and 10.26 nmol/g wet weight and 11.50 nmol/g wet weight and 10.56 nmol/g wet weight and 2172.4 nmol/l and 2112.1 nmol/l and 2051.2 nmol/l and 2300.5 nmol/l
same,DOPAC level in brain,normal mice,0.61 nmol/g wet weight and 0.65 nmol/g wet weight and 0.66 nmol/g wet weight and 0.59 nmol/g wet weight and 121.6 nmol/l and 118.9 nmol/l and 129.6 nmol/l and 132.5 nmol/l
same,HIAA level in brain,normal mice,3.09 nmol/g wet weight and 3.56 nmol/g wet weight and 3.65 nmol/g wet weight and 3.22 nmol/g wet weight and 617.3 nmol/l and 643.9 nmol/l and 712.0 nmol/l and 730.5 nmol/l
same,HVA level in brain,normal mice,1.26 nmol/g wet weight and 0.99 nmol/g wet weight and 1.20 nmol/g wet weight and 1.28 nmol/g wet weight and 252.9 nmol/l and 256.9 nmol/l and 197.1 nmol/l and 240.6 nmol/l
same,MPHG level in brain,normal mice,0.31 nmol/g wet weight and 0.26 nmol/g wet weight and 0.30 nmol/g wet weight and 0.29 nmol/g wet weight and 62.9 nmol/l and 58.9 nmol/l and 51.2 nmol/l and 59.7 nmol/l
same,"Overall effect on CNS chemistry, compared with BH4","PKU afflicted mice; PKU and normal mice, IM 100 mg/kg, 1 hr, summary of Tables 5 and 6",greater effect on CNS chemistry
same,3OMD level in brain,PKU afflicted mice,0.39 nmol/g wet weight and 0.26 nmol/g wet weight and 0.17 nmol/g wet weight and 0.47 nmol/g wet weight and 77.7 nmol/l and 51.9 nmol/l and 34.9 nmol/l and 94.1 nmol/l
same,5HT level in brain,PKU afflicted mice,0.20 nmol/g wet weight and 0.15 nmol/g wet weight and 0.28 nmol/g wet weight and 0.24 nmol/g wet weight and 40.0 nmol/l and 30.0 nmol/l and 56.7 nmol/l and 47.6 nmol/l
same,DA level in brain,PKU afflicted mice,10.16 nmol/g wet weight and 7.14 nmol/g wet weight and 6.46 nmol/g wet weight and 7.27 nmol/g wet weight and 2031.2 nmol/l and 1427.4 nmol/l and 1292.6 nmol/l and 1454.4 nmol/l
same,DOPAC level in brain,PKU afflicted mice,0.51 nmol/g wet weight and 0.40 nmol/g wet weight and 0.52 nmol/g wet weight and 0.48 nmol/g wet weight and 101.7 nmol/l and 80.6 nmol/l and 104.5 nmol/l and 95.6 nmol/l
same,HIAA level in brain,PKU afflicted mice,1.70 nmol/g wet weight and 1.03 nmol/g wet weight and 1.64 nmol/g wet weight and 1.41 nmol/g wet weight and 340.4 nmol/l and 205.6 nmol/l and 328.1 nmol/l and 282.2 nmol/l
same,HVA level in brain,PKU afflicted mice,1.18 nmol/g wet weight and 0.94 nmol/g wet weight and 0.92 nmol/g wet weight and 0.91 nmol/g wet weight and 236.9 nmol/l and 187.2 nmol/l and 184.5 nmol/l and 182.1 nmol/l
same,MPHG level in brain,PKU afflicted mice,0.36 nmol/g wet weight and 0.26 nmol/g wet weight and 0.32 nmol/g wet weight and 0.18 nmol/g wet weight and 71.2 nmol/l and 52.1 nmol/l and 63.2 nmol/l and 36.3 nmol/l
same,"Ability to traverse the blood brain barrier, as compared to BH4","PKU afflicted mice; inferred from brain metabolite levels, PKU and normal mice",better ability to traverse the blood brain barrier
C[C@H](O)[C@H](O)[C@H]1CNc2nc(N)[nH]c(=O)c2N1 [6R-BH4],"Release and liberation of neurotransmitter amines such as dopamine, norepinephrine and serotonin",[1],enhances the release and liberation of neurotransmitter amines
